Experimental findings from patent US12679878B2, “CRF2 receptor agonists and their use in therapy” (SANOFI, priority 2020, dated 2026) are described below.

A word on the EC50: it is the midpoint of the concentration-response curve. What is called Emax is the size of the effect at its maximum, as opposed to the concentration needed.

Assay [1] deals with T1, CRF1R receptor (Homo sapiens, UniProt P34998).
T1 construct: host or cells: CHO-K1 clone 2
T1 sequence (P34998 24-415): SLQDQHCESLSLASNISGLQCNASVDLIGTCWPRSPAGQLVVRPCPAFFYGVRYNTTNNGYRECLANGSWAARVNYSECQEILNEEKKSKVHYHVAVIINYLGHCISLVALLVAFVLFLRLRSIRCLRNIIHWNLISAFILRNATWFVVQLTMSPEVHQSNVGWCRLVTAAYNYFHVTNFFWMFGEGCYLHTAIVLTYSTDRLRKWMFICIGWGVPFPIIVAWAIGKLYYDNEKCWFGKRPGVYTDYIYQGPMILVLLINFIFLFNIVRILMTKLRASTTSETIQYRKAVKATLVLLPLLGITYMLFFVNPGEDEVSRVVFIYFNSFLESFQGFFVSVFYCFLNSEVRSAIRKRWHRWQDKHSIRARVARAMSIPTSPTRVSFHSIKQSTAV
Briefly: cAMP activity at anti-target CRF1R, CRF1R-overexpression CHO cell line (Example 9). The note with it: CRF1R-overexpression CHO cell line; for EC50: 0% HSA; for Emax: read-out: Emax (%). In kind it is cell-based. The protocol:
Cells were grown in a T175 culture flask placed at 37° C. to near confluence in medium (DMEM/10% FBS) and collected in 2 ml vials in cell culture medium containing 10% DMSO in a concentration of 10-50 million cells/ml. Each vial contained 1.8 ml cells. The vials were slowly frozen to −80° C. in isopropanol and then transferred in liquid nitrogen for storage. Prior to use, frozen cells were thawed quickly at 37° C. and washed (5 min at 900 rpm) with 20 ml cell buffer (1×HBSS; 20 mM HEPES; 0% or 0.1% HSA). Cells were resuspended in assay buffer (cell buffer plus 2 mM IBMX) and adjusted to a cell density of 1 million cells/ml. For measurement, 5 μl cells (final […]) and 5 μL of test compound were added to a 384-well plate, followed by incubation for 30 minutes at room temperature.
The CAMP content of cells was determined using a kit from Cisbio Corp. (cat. no. 62AM4PEC) based on HTRF (Homogenous Time Resolved Fluorescence). […] The percent activity value (E %) was calculated by setting 1000 nM of urocortin 2 (UCN2) as 100%.
A CRF1R-overexpression CHO cell line was used in this study.

The target in assay [2] is T2, human CRF2α receptor (Homo sapiens, UniProt Q13324).
T2 construct: expressed in transfected cells; host or cells: TeloHEAC
T2 sequence (Q13324 1-411): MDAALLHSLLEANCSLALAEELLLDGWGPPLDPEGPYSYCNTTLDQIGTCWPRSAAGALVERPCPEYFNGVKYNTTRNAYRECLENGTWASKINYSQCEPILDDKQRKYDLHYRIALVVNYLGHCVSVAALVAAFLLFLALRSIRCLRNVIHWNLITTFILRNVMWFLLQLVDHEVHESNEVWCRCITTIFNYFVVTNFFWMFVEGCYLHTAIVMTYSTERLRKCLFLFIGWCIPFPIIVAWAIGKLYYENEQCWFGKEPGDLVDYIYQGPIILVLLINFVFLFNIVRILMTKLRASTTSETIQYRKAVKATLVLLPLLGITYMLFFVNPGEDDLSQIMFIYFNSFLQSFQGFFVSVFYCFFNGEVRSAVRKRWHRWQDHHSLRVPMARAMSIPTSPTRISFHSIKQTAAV
Put plainly: cAMP agonism at human CRF2 α receptor in TeloHEAC cells (Example 7). In kind it is cell-based. The note with it: cAMP HTRF, TeloHEAC cells stably expressing human CRF2 α. In outline:
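Steps: thaw and wash cells; suspend in 1×HBSS, 20 mM HEPES, 0 or 0.1% HSA, 2 mM IBMX; add compound, 30 min RT; lyse with HTRF reagents, 1 h; read 665/620 nm. EC50 calculated, E% versus 1000 nM UCN2.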
In general terms: Time-resolved FRET reads energy transfer from a long-lived donor to a nearby acceptor.

Where [3] appears, read: 0% HSA, read-out: EC50 [nM], 0% HSA.

Where two headings read alike, the source gives them in different places. Starred links: 1 amine or outer side, 2 acyl side, 3 side chain; linkers in the order of their positions; H or OH if unused. Non-standard residues stand in square brackets, D forms with d. Residues, ends and D or L forms follow the SMILES beside them. Groups on a side chain read outwards from the residue. *: point of attachment. C18 diacid = O=C(O)CCCCCCCCCCCCCCCCC(=O)*; γGlu = O=C(O)[C@H](CCC(=O)[*:2])N[*:1]; Palmitoyl = CCCCCCCCCCCCCCCC(=O)*; AEEA = NCCOCCOCC(=O)O; Aib = CC(C)(N)C(=O)O Some results are limits rather than exact numbers.

On to `CCCCCCCCCCCCCCCC(=O)N[C@@H](CCC(=O)NCCCC[C@H](NC(=O)[C@H](CC(C)C)NC(=O)CNC(=O)[C@@H](NC(=O)[C@@H]1CCCN1C(=O)[C@@H](NC(=O)[C@H](CC(=O)O)NC(=O)[C@H](CC(C)C)NC(=O)[C@H](CO)NC(=O)[C@H](CC(C)C)NC(=O)[C@@H](NC(=O)[C@@H](N)[C@@H](C)CC)C(C)C)C(C)C)[C@@H](C)CC)C(=O)N[C@@H](CCC(N)=O)C(=O)N[C@@H](CCCCN)C(=O)N[C@@H](CC(C)C)C(=O)N[C@@H](CC(C)C)C(=O)N[C@@H](CCCCN)C(=O)N[C@@H](CCC(N)=O)C(=O)N[C@@H](CCC(N)=O)C(=O)N[C@@H](CCCNC(=N)N)C(=O)N[C@@H](CCC(N)=O)C(=O)N[C@@H](CCCNC(=N)N)C(=O)N[C@@H](CCCCN)C(=O)N[C@@H](CCC(=O)O)C(=O)N[C@@H](CCCNC(=N)N)C(=O)N[C@@H](CCC(N)=O)C(=O)N[C@@H](CCC(N)=O)C(=O)N[C@@H](C)C(=O)N[C@@H](CCC(=O)O)C(=O)N[C@H](C(=O)N[C@@H](CC(N)=O)C(=O)N[C@@H](C)C(=O)N[C@@H](CCCNC(=N)N)C(=O)N[C@H](C(=O)N[C@@H](CC(C)C)C(=O)N[C@@H](C)C(=O)N[C@@H](CCCNC(=N)N)C(=O)N[C@H](C(N)=O)C(C)C)[C@@H](C)CC)[C@@H](C)O)C(=O)O` [compound 5] (H-IVLSLDVPIGLK([γGlu-Palmitoyl])QKLLKQQRQRKERQQAETNARILARV-NH2; N-terminus assumed), for which, in assay [1], the EC50 was above 1000 nM and the Emax is 37.4%. Also, in assay [2] (setting [3]), the EC50 turned out to be 0.04 nM.

For `CCCCCCCCCCCCCCCC(=O)N[C@@H](CCC(=O)NCCCC[C@H](NC(=O)[C@@H](NC(=O)[C@H](CCCCN)NC(=O)[C@@H](NC(=O)[C@@H]1CCCN1C(=O)[C@@H](NC(=O)[C@H](CC(=O)O)NC(=O)[C@H](CC(C)C)NC(=O)[C@H](CO)NC(=O)[C@H](CC(C)C)NC(=O)[C@@H](NC(=O)[C@@H](N)Cc1ccccc1)[C@@H](C)O)C(C)C)[C@@H](C)O)[C@@H](C)CC)C(=O)N[C@@H](CCC(N)=O)C(=O)N[C@@H](CCCCN)C(=O)N[C@@H](CC(C)C)C(=O)N[C@@H](CC(C)C)C(=O)N[C@@H](CCCCN)C(=O)N[C@@H](CCC(N)=O)C(=O)N[C@@H](CCC(=O)O)C(=O)N[C@@H](CCCCN)C(=O)N[C@@H](CCC(N)=O)C(=O)N[C@@H](CCCCN)C(=O)N[C@@H](CCCCN)C(=O)N[C@@H](CCC(N)=O)C(=O)N[C@@H](CCCNC(=N)N)C(=O)N[C@@H](CCC(N)=O)C(=O)N[C@@H](CCCCN)C(=O)N[C@@H](C)C(=O)N[C@@H](CCCCN)C(=O)N[C@H](C(=O)N[C@@H](C)C(=O)N[C@@H](CCCCN)C(=O)N[C@@H](CCC(N)=O)C(=O)N[C@H](C(=O)N[C@@H](CC(C)C)C(=O)N[C@@H](CCC(=O)O)C(=O)N[C@@H](CCC(N)=O)C(=O)N[C@H](C(N)=O)C(C)C)[C@@H](C)CC)[C@@H](C)O)C(=O)O` [compound 9] (H-FTLSLDVPTKIK([γGlu-Palmitoyl])QKLLKQEKQKKQRQKAKTAKQILEQV-NH2), in assay [1], the EC50 is above 1000 nM and the maximal response (Emax) amounted to 14.9%.

In the case of `CCCCCCCCCCCCCCCC(=O)N[C@@H](CCC(=O)NCCCC[C@H](NC(=O)[C@@H](NC(=O)[C@H](CCCCN)NC(=O)[C@@H](NC(=O)[C@@H]1CCCN1C(=O)[C@@H](NC(=O)[C@H](CC(=O)O)NC(=O)[C@H](CC(C)C)NC(=O)[C@H](CO)NC(=O)[C@H](CC(C)C)NC(=O)[C@@H](NC(=O)[C@@H](N)Cc1ccccc1)[C@@H](C)O)C(C)C)[C@@H](C)O)[C@@H](C)CC)C(=O)N[C@@H](CCC(N)=O)C(=O)N[C@@H](CCCCN)C(=O)N[C@@H](CC(C)C)C(=O)N[C@@H](CC(C)C)C(=O)N[C@@H](CCCCN)C(=O)N[C@@H](CCC(N)=O)C(=O)N[C@@H](CCC(=O)O)C(=O)N[C@@H](CCCCN)C(=O)N[C@@H](CCC(N)=O)C(=O)N[C@@H](CCCNC(=N)N)C(=O)N[C@@H](CCCCN)C(=O)N[C@@H](CCC(N)=O)C(=O)N[C@@H](CCCCN)C(=O)N[C@@H](CCC(N)=O)C(=O)N[C@@H](CCC(N)=O)C(=O)N[C@@H](C)C(=O)N[C@@H](CCCCN)C(=O)N[C@H](C(=O)N[C@@H](CC(N)=O)C(=O)N[C@@H](C)C(=O)N[C@@H](CCCCN)C(=O)N[C@H](C(=O)N[C@@H](CC(C)C)C(=O)N[C@@H](C)C(=O)N[C@@H](CCCNC(=N)N)C(=O)N[C@H](C(N)=O)C(C)C)[C@@H](C)CC)[C@@H](C)O)C(=O)O` [compound 12] (H-FTLSLDVPTKIK([γGlu-Palmitoyl])QKLLKQEKQRKQKQQAKTNAKILARV-NH2), the EC50 in assay [1] was above 1000 nM; in assay [2] (setting [3]), 0.09 nM. For the same molecule, the maximal response (Emax) in assay [1] was found to be 41.8%.

As for `CCCCCCCCCCCCCCCC(=O)N[C@@H](CCC(=O)NCCCC[C@H](NC(=O)[C@H](CC(C)C)NC(=O)[C@H](CCCCN)NC(=O)[C@@H](NC(=O)[C@@H]1CCCN1C(=O)[C@H](NC(=O)[C@H](CC(=O)O)NC(=O)[C@H](CC(C)C)NC(=O)[C@H](CO)NC(=O)[C@H](CC(C)C)NC(=O)[C@@H](NC(=O)[C@@H](N)[C@@H](C)CC)C(C)C)C(C)C)[C@@H](C)O)C(=O)N[C@@H](CCC(N)=O)C(=O)N[C@@H](CCCCN)C(=O)N[C@@H](CC(C)C)C(=O)N[C@@H](CC(C)C)C(=O)N[C@@H](CCCCN)C(=O)N[C@@H](CCC(N)=O)C(=O)N[C@@H](CCC(=O)O)C(=O)N[C@@H](CCCNC(=N)N)C(=O)N[C@@H](CCC(N)=O)C(=O)N[C@@H](CCCNC(=N)N)C(=O)N[C@@H](CCCCN)C(=O)N[C@@H](CCC(=O)O)C(=O)NC(C)(C)C(=O)N[C@@H](CCC(=O)O)C(=O)N[C@@H](CCC(N)=O)C(=O)N[C@@H](C)C(=O)N[C@@H](CCC(=O)O)C(=O)N[C@@H](CCCCN)C(=O)N[C@@H](CC(N)=O)C(=O)N[C@@H](CCCCN)C(=O)N[C@@H](CCCNC(=N)N)C(=O)N[C@H](C(=O)N[C@@H](CC(C)C)C(=O)N[C@@H](CCC(=O)O)C(=O)N[C@@H](CCCNC(=N)N)C(=O)N[C@H](C(N)=O)C(C)C)[C@@H](C)CC)C(=O)O` [compound 21] (H-IVLSLD[dV]PTKLK([γGlu-Palmitoyl])QKLLKQERQRKE[Aib]EQAEKNKRILERV-NH2; N-terminus assumed), the maximum response (Emax) in assay [1] came to 59.2%. In addition, the concentration for a half-maximal effect (EC50) in assay [2] (setting [3]) came to 0.02 nM.

For `CC[C@H](C)[C@H](NC(C)=O)C(=O)N[C@H](C(=O)N[C@@H](CC(C)C)C(=O)N[C@@H](CO)C(=O)N[C@@H](CC(C)C)C(=O)N[C@@H](CC(=O)O)C(=O)N[C@@H](C(=O)N1CCC[C@H]1C(=O)N[C@H](C(=O)N[C@@H](CCCCN)C(=O)N[C@@H](CC(C)C)C(=O)N[C@@H](CCCCNC(=O)COCCOCCNC(=O)COCCOCCNC(=O)CC[C@H](NC(=O)CCCCCCCCCCCCCCCCC(=O)O)C(=O)O)C(=O)N[C@@H](CCC(N)=O)C(=O)N[C@H](C(=O)N[C@@H](CC(C)C)C(=O)N[C@@H](CC(C)C)C(=O)N[C@@H](CCC(=O)O)C(=O)N[C@@H](CCC(N)=O)C(=O)N[C@@H](CCC(=O)O)C(=O)N[C@@H](CCCNC(=N)N)C(=O)N[C@@H](CCC(N)=O)C(=O)N[C@@H](CCC(=O)O)C(=O)NC(C)(C)C(=O)N[C@@H](CCC(=O)O)C(=O)N[C@@H](CCCNC(=N)N)C(=O)N[C@@H](CCC(=O)O)C(=O)N[C@@H](CCC(N)=O)C(=O)N[C@@H](C)C(=O)N[C@@H](CCC(=O)O)C(=O)N[C@H](C(=O)N[C@@H](CC(N)=O)C(=O)N[C@@H](CCCCN)C(=O)N[C@@H](CCC(N)=O)C(=O)N[C@H](C(=O)N[C@@H](CC(C)C)C(=O)N[C@@H](CCC(=O)O)C(=O)N[C@@H](CCC(N)=O)C(=O)N[C@H](C(N)=O)C(C)C)[C@@H](C)CC)[C@@H](C)O)[C@@H](C)CC)[C@@H](C)CC)C(C)C)C(C)C` [compound 160] (Ac-IVLSLD[dV]PIKLK([AEEA-AEEA-γGlu-C18 diacid])QILLEQERQE[Aib]EREQAETNKQILEQV-NH2), the EC50 in assay [1] is above 1000 nM; in assay [2] (setting [3]) it was 8.56 nM; in assay [2] (0.1% HSA, read-out: EC50 [nM], 0.1% HSA), 28.9 nM. For the same molecule, the maximum response (Emax) in assay [1] worked out at 20.8%.
